Test results from patent US20250000834A1, “COMPOSITIONS AND METHODS FOR TARGETING GPCR FOR THE PREVENTION AND TREATMENT OF PAIN” (Duke University, priority 2021, published 2025).

Experiments:
GPR37L1 [1] = test: Lipid overlay assay on MaR1-coated PVDF membrane with mouse DRG lysates; format: binding; conditions: Gpr37l1 KO DRG lysate
Experimental: (§1) Lipids overlay assay: Lipids membrane coating and protein overlay assay were performed as previously described (S. Dowler, et al., Protein lipid overlay assay. Sci STKE 2002, p 16 (2002)). […] Compound-coated membranes were dried and blocked with 1% BSA. The coated membranes were incubated with lysates obtained from hGPR37L1-transfected HEK293 cells or mouse DRG lysate from WT or Gpr37l1 KO mice for 2 hours, followed by detection using an anti-GRP37L1 antibody (Bioss (Woburn, MA), Rabbit, 1:1000, #bs-15390R) or anti-flag antibody (Cell Signaling Technology (Danvers, MA), Rabbit, 1:1000, #14793). Blots were further incubated with an HRP-conjugated secondary anti-rabbit antibody (Jackson ImmunoResearch Laboratories (West Grove, PA), raised in donkey, 1:5000), developed in ECL solution (Pierce Biotechnology, Waltham, MA), and the signal was visualized from ChemiDoc XRS (Bio-Rad, Hercules, CA). The signal Intensity was quantified by Image J software (NIH).
(§2) To confirm whether DRG-expressed GPR37L1 would also interact with MaR1, a lipid overlay assay was performed on MaR1-coated PVDF membrane using DRG lysates from WT or Gpr37l1 KO mice. To determine dose-dependent binding, MaR1 was coated at the concentrations of 0.01 nM, 0.1 nM, 1 nM, and 10 nM.

GPR37L1 [2] = target: T1, GPR37L1 (Mus musculus, UniProt Q99JG2); test: as above; format: binding; conditions: WT DRG lysate; MaR1 coated at 10 nM
T1 construct: from tissue; host or cells: mouse dorsal root ganglia (DRG)
T1 sequence (Q99JG2 25-481): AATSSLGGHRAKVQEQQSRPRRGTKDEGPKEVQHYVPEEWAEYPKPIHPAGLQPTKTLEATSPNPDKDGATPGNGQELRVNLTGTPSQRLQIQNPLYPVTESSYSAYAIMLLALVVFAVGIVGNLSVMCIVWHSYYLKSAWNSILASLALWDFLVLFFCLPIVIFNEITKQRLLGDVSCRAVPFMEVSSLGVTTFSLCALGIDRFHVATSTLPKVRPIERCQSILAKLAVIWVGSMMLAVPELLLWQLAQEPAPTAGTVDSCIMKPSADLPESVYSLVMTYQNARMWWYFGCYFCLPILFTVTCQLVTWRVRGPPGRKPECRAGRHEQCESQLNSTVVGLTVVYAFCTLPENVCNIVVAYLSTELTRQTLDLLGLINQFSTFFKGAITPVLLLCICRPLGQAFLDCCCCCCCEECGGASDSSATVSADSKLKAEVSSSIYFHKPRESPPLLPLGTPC
Experimental: as §1, §2

[3] = test system: Kir4.1 potassium channels in SGCs; test: Patch-clamp recordings of K+ currents in SGCs of whole-mount DRG; format: cell-based, mouse
Experimental: Patch-clamp recordings in SGCs of whole-mount DRG: Under urethane anesthesia, mice were rapidly euthanized, followed by careful isolation of lumbar DRGs placed in the oxygenated artificial cerebral spinal fluid (aCSF). DRGs were briefly digested (20 min) using an enzymatic mixture consisting of collagenase A (1 mg/mL) and 0.32 mL Trypsin (0.25% original solution). Intact DRG were then incubated in aCSF oxygenated with 95% O2 and 5% CO2 at 34° C. Following incubation, DRG were transferred to a recording chamber. Isolated DRGs were transferred to a recording chamber continuously perfused (˜3 ml/min) with aCSF. SGCs in whole mouse DRGs could be visualized using a 40× water-immersion objective on an Olympus BX51WI microscope (Olympus Corp., Shinjuku, Japan). The round or fusiform-shaped cell bodies of SGCs were small (<10 μm) but visible near the edges of DRG neurons. Patch pipettes (Chase Scientific Glass Inc., Ramsey, MN) were pulled and filled with a pipette solution containing: 126 mM potassium gluconate, 10 mM NaCl, 1 mM MgCl2, 10 mM EGTA, 2 mM Na-ATP, and 0.1 mM Mg-GTP, adjusted to pH 7.3 with KOH. The resistance of pipettes was 10-12 MΩ. A Whole-cell patch-clamp configuration was made on SGCs at room temperature using a Multiclamp 700B amplifier (Axon Instruments, Union City, CA). Under voltage clamp, at a holding potential of −80 mV, inward or outward currents are triggered by voltage steps of −160 to +40 mV, with 20 mV increment in 200 ms (H. Zhang et al., Altered functional properties of satellite glial cells in compressed spinal ganglia. Glia 57, 1588-1599 (2009)). To isolate inwardly rectifying potassium current (Kir), potassium currents from the same cells were recorded in the absence and presence of 100 μM extracellular barium, which blocks the Kir4.1 channel (C. A. Doupnik, et al, The inward rectifier potassium channel family. Curr Opin Neurobiol 5, 268-277 (1995); X. Tong et al., Astrocyte Kir4.1 ion channel deficits contribute to neuronal dysfunction in Huntington's disease model mice. Nat Neurosci 17, 694-703 (2014)). The Kir4.1 currents were obtained by digitally subtracting those currents in the absence and presence of barium.
Kir4.1 potassium channels are the predominant potassium channels in SGCs and are chiefly responsible for the potassium currents in SGCs. Dysregulation of SGC Kir4.1 contributes to the pathogenesis of pain (M. Hanani, D. C. Spray, Emerging importance of satellite glia in nervous system function and dysfunction. Nat Rev Neurosci 21, 485-498 (2020)). SGC K^+ currents were recorded by conducting patch-clamp recordings in SGCs in whole-mount DRG preparation (data not shown; see U.S. Prov. No. 63/270,198, FIG. 7A), collected from WT mice, Gpr37l1^+/+ mice, and Gpr37l1^+/− mutant mice (FIG. 11A parts A-C).

binding spot in lipid overlay assay (GPR37L1 [1]): completely absent
binding spot in lipid overlay assay (GPR37L1 [2]): specific binding spot was observed
Compound: CC/C=C\C/C=C\C[C@H](O)\C=C/C=C/C=C/[C@H](O)C/C=C\CCC(=O)O [MaR1, Maresin 1]
effect on PTX-induced downregulation of K+ currents in SGCs ([3]; 100 ng/ml co-applied with PTX, Gpr37l1+/+ DRG): significantly rescued
effect on K+ currents in SGCs ([3]; 100 ng/ml with PTX, Gpr37l1 mutant (Gpr37l1+/−) DRG): completely abolished
